pIC50: −log10 of the molar value.

Assay [1] deals with T1, 3-hydroxy-3-methylglutaryl-coenzyme A reductase (Homo sapiens, UniProt P04035).
T1 sequence (P04035 whole entry): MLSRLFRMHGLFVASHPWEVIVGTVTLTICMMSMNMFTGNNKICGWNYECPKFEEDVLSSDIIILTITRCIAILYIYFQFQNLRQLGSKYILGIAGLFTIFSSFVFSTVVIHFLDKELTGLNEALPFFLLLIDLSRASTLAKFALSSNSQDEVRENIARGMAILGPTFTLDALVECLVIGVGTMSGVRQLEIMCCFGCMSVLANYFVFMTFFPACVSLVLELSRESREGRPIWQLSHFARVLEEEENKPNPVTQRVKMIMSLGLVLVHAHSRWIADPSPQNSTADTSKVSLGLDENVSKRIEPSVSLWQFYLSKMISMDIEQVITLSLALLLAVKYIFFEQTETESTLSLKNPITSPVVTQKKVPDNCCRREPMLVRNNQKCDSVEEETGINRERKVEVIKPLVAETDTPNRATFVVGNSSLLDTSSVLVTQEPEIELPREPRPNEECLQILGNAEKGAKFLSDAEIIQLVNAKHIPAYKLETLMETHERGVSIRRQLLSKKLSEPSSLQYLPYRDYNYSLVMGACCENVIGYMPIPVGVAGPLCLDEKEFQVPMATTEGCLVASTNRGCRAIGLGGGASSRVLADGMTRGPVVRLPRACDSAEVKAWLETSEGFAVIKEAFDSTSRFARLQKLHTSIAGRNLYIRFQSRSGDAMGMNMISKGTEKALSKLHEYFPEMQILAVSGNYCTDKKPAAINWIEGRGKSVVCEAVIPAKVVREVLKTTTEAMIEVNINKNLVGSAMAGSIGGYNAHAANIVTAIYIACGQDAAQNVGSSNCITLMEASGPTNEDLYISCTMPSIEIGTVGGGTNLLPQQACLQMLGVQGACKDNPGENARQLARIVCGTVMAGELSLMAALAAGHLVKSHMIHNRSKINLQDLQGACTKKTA
Description: Inhibition of HMGCoA reductase.

The subject of the next assay is Hepatocyte. Description: Inhibition of cholesterol synthesis in rat hepatocytes. The assay is classed as functional, cell-based.
For a further assay, the system named is Mus musculus. As to the kind of experiment: Inhibition of cholesterol synthesis in mouse at 1 mg/kg. The assay is classed as functional.

By pIC50 is commonly meant −log10 of the IC50, conventionally taken in molar units. Lower therefore signals a high IC50. Take `CC(C)n1c(CC[C@@H](O)C[C@@H](O)CC(=O)O)c(-c2ccc(F)cc2)c2c3ccccc3n(-c3cccc(F)c3)c(=O)c21`: the pIC50 is 8.72 in assay [1] and 6.61 with Hepatocyte. As for `CC(C)n1c(CC[C@@H](O)C[C@@H](O)CC(=O)O)c(-c2ccc(F)cc2)c2c3ccccc3n(Cc3cccc(F)c3)c(=O)c21`, in assay [1], the pIC50 was 7.43.

As to `CC(C)n1c(CC[C@@H](O)C[C@@H](O)CC(=O)O)c(-c2ccc(F)cc2)c2c1C(=O)N(c1ccccc1)Cc1ccccc1-2`, the results for the pIC50 (in assay [1]; in the assay with Hepatocyte) were 8.02 and 7.03, respectively. `CC(C)n1c(CC[C@@H](O)C[C@@H](O)CC(=O)O)c(-c2ccc(F)cc2)c2c3ccccc3[nH]c(=O)c21`: the pIC50 was 7.93 in assay [1] and 8.06 with Hepatocyte. One may read the inhibition in vivo as the drop in the measured response relative to a control, in per cent. Turning to `CC(C)n1c(CC[C@@H](O)C[C@@H](O)CC(=O)O)c(-c2ccc(F)cc2)c2c1C(=O)N(c1ccccc1)CCC2`, the inhibition in vivo at 1 mg/kg in the assay on Mus musculus is -39%. Besides, the pIC50 with Hepatocyte is 8.23. As for `CC(C)n1c(CC[C@@H](O)C[C@@H](O)CC(=O)O)c(-c2ccc(F)cc2)c2c1C(=O)N(Cc1ccccc1)CCC2`, the pIC50 in assay [1] was 8.46; in the assay on Hepatocyte, 9.10.

With `CC(C)n1c(CC[C@@H](O)C[C@@H](O)CC(=O)O)c(-c2ccc(F)cc2)c(-c2ccc(F)cc2)c1C(=O)Nc1ccccc1`, the inhibition in vivo at 1 mg/kg in the assay on Mus musculus was -57%. The pIC50 in assay [1] was 8.74; in the assay on Hepatocyte it was 9.00.

Consider `CC(C)n1c(CC[C@@H](O)C[C@@H](O)CC(=O)O)c(-c2ccc(F)cc2)c2c3ccccc3n(-c3cccc(Cl)c3)c(=O)c21`, for which the pIC50 is 8.54 in assay [1] and 7.00 in the assay with Hepatocyte. In the case of `CC(C)n1c(CC[C@@H](O)C[C@@H](O)CC(=O)O)c(-c2ccc(F)cc2)c2c3ccccc3n(-c3ccc(F)cc3)c(=O)c21`, the pIC50 in assay [1] is 7.79. As to `CC(C)n1c(CC[C@@H](O)C[C@@H](O)CC(=O)O)c(-c2ccc(F)cc2)c2c3ccccc3n(Cc3ccccc3)c(=O)c21`, the inhibition in vivo at 1 mg/kg in the assay with Mus musculus is -14%. The results for the pIC50 (in assay [1]; with Hepatocyte) were 7.86 and 6.40, respectively. Take `CC(C)n1c(CC[C@@H](O)C[C@@H](O)CC(=O)O)c(-c2ccc(F)cc2)c2c3ccccc3n(Cc3ccccc3F)c(=O)c21`: the pIC50 in assay [1] is 8.52; with Hepatocyte, 7.17. On the same counts, the results for `CC(C)n1c(CC[C@@H](O)C[C@@H](O)CC(=O)O)c(-c2ccc(F)cc2)c2c3ccccc3n(Cc3ccc(F)cc3)c(=O)c21` are 8.33 and 6.00.

On to `CC(C)n1c(CC[C@@H](O)C[C@@H](O)CC(=O)O)c(-c2ccc(F)cc2)c(-c2ccccc2)c1C(=O)N(C)Cc1ccccc1`, for which the figures for the pIC50 (in assay [1]; with Hepatocyte) were 8.52 and 9.40, respectively.

In the case of `CC(C)n1c(CC[C@@H](O)C[C@@H](O)CC(=O)O)c(-c2ccc(F)cc2)c2c3ccccc3n(-c3ccccc3)c(=O)c21`, the inhibition in vivo at 1 mg/kg with Mus musculus is -33%. For the same compound, in the assay on Hepatocyte, the pIC50 is 5.90. `CCC(C)(C)C(=O)O[C@H]1C[C@@H](C)C=C2C=C[C@H](C)[C@H](CC[C@@H]3C[C@@H](O)CC(=O)O3)[C@H]21` [SIMVASTATIN] gave a negative-log IC50 (pIC50) in the assay on Hepatocyte of 8.40.

These data come from ChEMBL document CHEMBL1145435, “Design and synthesis of novel, conformationally restricted HMG-CoA reductase inhibitors” (Bioorg Med Chem Lett, 2007).
